PubChem BioAssay (NCI)
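All cell lines were grown in 96-well plates and treated with compound for 48 hours. TGI: concentration producing complete growth inhibition.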

Columns and labels:
Experiment in all cases: growth of human tumour cells (NCI), 48 h
BT-549 breast = system: BT-549 breast
SK-MEL-2 melanoma = system: SK-MEL-2 melanoma
HCT-15 colon = system: HCT-15 colon
NCI-H460 lung = system: NCI-H460 lung
K-562 leukemia = system: K-562 leukemia
UACC-257 melanoma = system: UACC-257 melanoma
SF-295 CNS = system: SF-295 CNS
M14 melanoma = system: M14 melanoma
TK-10 renal = system: TK-10 renal
PC-3 prostate = system: PC-3 prostate
NCI/ADR-RES ovarian = system: NCI/ADR-RES ovarian
SW-620 colon = system: SW-620 colon
NCI-H23 lung = system: NCI-H23 lung
MALME-3M melanoma = system: MALME-3M melanoma
SNB-19 CNS = system: SNB-19 CNS
NCI-H522 lung = system: NCI-H522 lung
HOP-62 NSCLC = system: HOP-62 NSCLC
HL-60(TB) leukemia = system: HL-60(TB) leukemia
EKVX NSCLC = system: EKVX NSCLC
MDA-MB-435 = system: MDA-MB-435
HOP-92 NSCLC = system: HOP-92 NSCLC
KM12 colon = system: KM12 colon
RXF 393 renal = system: RXF 393 renal
A498 renal = system: A498 renal
OVCAR-3 ovarian = system: OVCAR-3 ovarian
786-0 renal = system: 786-0 renal
SK-MEL-5 melanoma = system: SK-MEL-5 melanoma
CAKI-1 renal = system: CAKI-1 renal
SR leukemia = system: SR leukemia
COLO 205 colon = system: COLO 205 colon
HCT-116 colon = system: HCT-116 colon
UO-31 renal = system: UO-31 renal
UACC-62 melanoma = system: UACC-62 melanoma
HS 578T breast = system: HS 578T breast
A549 NSCLC = system: A549 NSCLC
MCF7 breast = system: MCF7 breast
MDA-MB-231 breast = system: MDA-MB-231 breast
HCC-2998 colon = system: HCC-2998 colon
NCI-H226 lung = system: NCI-H226 lung
SN12C renal = system: SN12C renal
U251 CNS = system: U251 CNS
SK-OV-3 ovarian = system: SK-OV-3 ovarian
DU-145 prostate = system: DU-145 prostate
MDA-N = system: MDA-N
ACHN renal = system: ACHN renal
SF-268 CNS = system: SF-268 CNS
OVCAR-5 ovarian = system: OVCAR-5 ovarian
IGROV1 ovarian = system: IGROV1 ovarian
HT29 colon = system: HT29 colon
OVCAR-4 ovarian = system: OVCAR-4 ovarian
T-47D breast = system: T-47D breast
CCRF-CEM leukemia = system: CCRF-CEM leukemia
SF-539 CNS = system: SF-539 CNS
RPMI-8226 leukemia = system: RPMI-8226 leukemia
SNB-75 CNS = system: SNB-75 CNS
SK-MEL-28 melanoma = system: SK-MEL-28 melanoma
OVCAR-8 ovarian = system: OVCAR-8 ovarian
LOX IMVI melanoma = system: LOX IMVI melanoma
MOLT-4 leukemia = system: MOLT-4 leukemia
LXFL 529 NSCLC = system: LXFL 529 NSCLC
M19-MEL melanoma = system: M19-MEL melanoma
DMS 273 small cell lung = system: DMS 273 small cell lung
KM20L2 colon = system: KM20L2 colon
DLD-1 colon = system: DLD-1 colon
XF 498 CNS = system: XF 498 CNS
DMS 114 small cell lung = system: DMS 114 small cell lung

CSc1ccc2c(c1)c(CCN)c(C)n2Cc1ccccc1Cl
TGI (BT-549 breast): 33.5 µM
TGI (SK-MEL-2 melanoma): 3.26 µM
TGI (HCT-15 colon): 4.45 µM
TGI (NCI-H460 lung): 3.02 µM
TGI (K-562 leukemia): 2.83 µM
TGI (UACC-257 melanoma): 3.29 µM
TGI (SF-295 CNS): 3.26 µM
TGI (M14 melanoma): 3.32 µM
TGI (TK-10 renal): 3.15 µM
TGI (PC-3 prostate): 2.86 µM
TGI (NCI/ADR-RES ovarian): 4.77 µM
TGI (SW-620 colon): 3.89 µM
TGI (NCI-H23 lung): 3.86 µM
TGI (MALME-3M melanoma): 3.34 µM
TGI (SNB-19 CNS): 3.32 µM
TGI (NCI-H522 lung): 3 µM
TGI (HOP-62 NSCLC): 2.62 µM
TGI (HL-60(TB) leukemia): 3.2 µM
TGI (EKVX NSCLC): 3.12 µM
TGI (MDA-MB-435): 3.08 µM
TGI (HOP-92 NSCLC): 2.75 µM
TGI (KM12 colon): 3.32 µM
TGI (RXF 393 renal): 2.83 µM
TGI (A498 renal): 3.1 µM
TGI (OVCAR-3 ovarian): 3.3 µM
TGI (786-0 renal): 3.42 µM
TGI (SK-MEL-5 melanoma): 3.11 µM
TGI (CAKI-1 renal): 4.1 µM
TGI (SR leukemia): > 100 µM
TGI (COLO 205 colon): 2.99 µM
TGI (HCT-116 colon): 3.07 µM
TGI (UO-31 renal): 2.96 µM
TGI (UACC-62 melanoma): 3.05 µM
TGI (HS 578T breast): 3.67 µM
TGI (A549 NSCLC): 3.18 µM
TGI (MCF7 breast): 3.11 µM
TGI (MDA-MB-231 breast): 3.66 µM
TGI (HCC-2998 colon): 2.04 µM
TGI (NCI-H226 lung): 4.1 µM
TGI (SN12C renal): 3.06 µM
TGI (U251 CNS): 3.06 µM
TGI (SK-OV-3 ovarian): 4.28 µM
TGI (DU-145 prostate): 3.04 µM
TGI (MDA-N): 3.11 µM
TGI (ACHN renal): 3.06 µM
TGI (SF-268 CNS): 3.4 µM
TGI (OVCAR-5 ovarian): 3.78 µM
TGI (IGROV1 ovarian): 3.25 µM
TGI (HT29 colon): 3.09 µM
TGI (OVCAR-4 ovarian): 3.29 µM
TGI (T-47D breast): 3.09 µM
TGI (CCRF-CEM leukemia): 3.89 µM
TGI (SF-539 CNS): 2.26 µM
TGI (RPMI-8226 leukemia): 3.26 µM
TGI (SNB-75 CNS): 3.04 µM
TGI (SK-MEL-28 melanoma): 3.22 µM

CCOC(=O)c1nc2cc(Cl)ccc2[nH]c1=O
TGI (BT-549 breast): > 100 µM
TGI (SK-MEL-2 melanoma): > 100 µM
TGI (HCT-15 colon): > 100 µM
TGI (NCI-H460 lung): > 100 µM
TGI (OVCAR-8 ovarian): > 100 µM
TGI (K-562 leukemia): > 100 µM
TGI (UACC-257 melanoma): > 100 µM
TGI (SF-295 CNS): > 100 µM
TGI (M14 melanoma): > 100 µM
TGI (TK-10 renal): > 100 µM
TGI (PC-3 prostate): > 100 µM
TGI (NCI/ADR-RES ovarian): > 100 µM
TGI (SW-620 colon): > 100 µM
TGI (NCI-H23 lung): > 100 µM
TGI (MALME-3M melanoma): > 100 µM
TGI (SNB-19 CNS): > 100 µM
TGI (NCI-H522 lung): > 100 µM
TGI (HOP-62 NSCLC): > 100 µM
TGI (HL-60(TB) leukemia): > 100 µM
TGI (EKVX NSCLC): > 100 µM
TGI (MDA-MB-435): > 100 µM
TGI (HOP-92 NSCLC): > 100 µM
TGI (KM12 colon): > 100 µM
TGI (RXF 393 renal): > 100 µM
TGI (A498 renal): > 100 µM
TGI (OVCAR-3 ovarian): > 100 µM
TGI (786-0 renal): > 100 µM
TGI (SK-MEL-5 melanoma): > 100 µM
TGI (CAKI-1 renal): > 100 µM
TGI (SR leukemia): > 100 µM
TGI (COLO 205 colon): > 100 µM
TGI (LOX IMVI melanoma): > 100 µM
TGI (HCT-116 colon): > 100 µM
TGI (UO-31 renal): > 100 µM
TGI (UACC-62 melanoma): > 100 µM
TGI (HS 578T breast): > 100 µM
TGI (A549 NSCLC): > 100 µM
TGI (MCF7 breast): > 100 µM
TGI (MOLT-4 leukemia): > 100 µM
TGI (MDA-MB-231 breast): > 100 µM
TGI (HCC-2998 colon): > 100 µM
TGI (NCI-H226 lung): > 100 µM
TGI (SN12C renal): > 100 µM
TGI (U251 CNS): > 100 µM
TGI (SK-OV-3 ovarian): > 100 µM
TGI (DU-145 prostate): > 100 µM
TGI (MDA-N): > 100 µM
TGI (ACHN renal): > 100 µM
TGI (SF-268 CNS): > 100 µM
TGI (OVCAR-5 ovarian): > 100 µM
TGI (IGROV1 ovarian): > 100 µM
TGI (HT29 colon): > 100 µM
TGI (OVCAR-4 ovarian): > 100 µM
TGI (T-47D breast): > 100 µM
TGI (CCRF-CEM leukemia): > 100 µM
TGI (SF-539 CNS): > 100 µM
TGI (RPMI-8226 leukemia): > 100 µM
TGI (SK-MEL-28 melanoma): > 100 µM

O=C1Nc2ccc(Cl)c(I)c2C1=O
TGI (SK-MEL-2 melanoma): 34.2 µM
TGI (HCT-15 colon): 43.7 µM
TGI (NCI-H460 lung): 39.7 µM
TGI (LXFL 529 NSCLC): 30.5 µM
TGI (OVCAR-8 ovarian): 38.1 µM
TGI (K-562 leukemia): 65.5 µM
TGI (UACC-257 melanoma): 33 µM
TGI (SF-295 CNS): 32.3 µM
TGI (M14 melanoma): 31.1 µM
TGI (TK-10 renal): > 100 µM
TGI (M19-MEL melanoma): 24.9 µM
TGI (SW-620 colon): 36.9 µM
TGI (NCI-H23 lung): 37.6 µM
TGI (MALME-3M melanoma): 34.8 µM
TGI (SNB-19 CNS): 80.5 µM
TGI (NCI-H522 lung): 32 µM
TGI (HOP-62 NSCLC): 34.8 µM
TGI (HL-60(TB) leukemia): 41.3 µM
TGI (EKVX NSCLC): 20.8 µM
TGI (KM12 colon): 76.3 µM
TGI (RXF 393 renal): 29.8 µM
TGI (OVCAR-3 ovarian): 52.3 µM
TGI (786-0 renal): 36.8 µM
TGI (SK-MEL-5 melanoma): 34.9 µM
TGI (CAKI-1 renal): 37.9 µM
TGI (SR leukemia): 50.7 µM
TGI (COLO 205 colon): 35.1 µM
TGI (LOX IMVI melanoma): 35.1 µM
TGI (HCT-116 colon): 28.8 µM
TGI (UO-31 renal): 38.8 µM
TGI (UACC-62 melanoma): 34.8 µM
TGI (A549 NSCLC): > 100 µM
TGI (MOLT-4 leukemia): 54.6 µM
TGI (HCC-2998 colon): 27.7 µM
TGI (NCI-H226 lung): 20 µM
TGI (SN12C renal): 30.9 µM
TGI (U251 CNS): 31.2 µM
TGI (DMS 273 small cell lung): 30.8 µM
TGI (SK-OV-3 ovarian): 34.6 µM
TGI (ACHN renal): 30.7 µM
TGI (SF-268 CNS): 32.6 µM
TGI (KM20L2 colon): 34.9 µM
TGI (OVCAR-5 ovarian): 34.1 µM
TGI (DLD-1 colon): 31.4 µM
TGI (IGROV1 ovarian): 30.9 µM
TGI (XF 498 CNS): 34.2 µM
TGI (HT29 colon): 75.9 µM
TGI (OVCAR-4 ovarian): 32 µM
TGI (DMS 114 small cell lung): 34.2 µM
TGI (CCRF-CEM leukemia): 57.4 µM
TGI (SNB-75 CNS): 50.8 µM
TGI (SK-MEL-28 melanoma): 31.7 µM
